Earlier results as cited in patent US20100178285A1, “SYNERGISTIC ANTHELMINTIC COMPOSITION” (priority 2006, published 2010).
Where two headings read alike, the source gives them in different places.

Tests used:
[1] = tested on: gastrointestinal nematodes of sheep and goats; settings: first farm, ten days after treatment
[2] = sheep
[3] = tested on: mixed species of gastrointestinal nematodes; settings: sheep, 7.5 mg/kg
[4] = tested on: gastrointestinal nematodes of sheep and goats
[5] = tested on: Heligmosomoides polygyrus; settings: in vitro, H. polygyrus
[6] = second farm, 10 days after treatment

free T3 and free T4 levels ([2]; either group (7.5 and 40 mg kg(−1)))	inorganic phosphate levels ([2]; groups 1 and 2)	serum albumin level ([2]; groups 1 and 2)	serum cholesterol level ([2]; groups 1 and 2)	triiodothyronine (T3) and thyroxin (T4) levels vs control ([2]; oral 7.5 mg kg(−1) (group 1))	levels of total T3 ([2]; oral 40 mg kg(−1) (group 2))	levels of total T4 ([2]; oral 40 mg kg(−1) (group 2))	creatinine kinase (CK) activity ([2]; oral 7.5 and 40 mg kg(−1))	lactate dehydrogenase (LDH) activity ([2]; oral 7.5 and 40 mg kg(−1))	serum alkaline phosphatase (ALP) activities ([2]; oral 7.5 and 40 mg kg(−1))	SMILES	reduction in faecal egg count [1] [%]	alanine aminotransferase (ALT) activity ([2]; oral 7.5 and 40 mg kg(−1))	aspartate aminotransferase (AST) activity ([2]; oral 7.5 and 40 mg kg(−1))	reduction in EPG [3] [%]	reduction in faecal egg count ([4]; first farm, ten days after treatment) [%]	reduction in faecal egg count [4, 6] [%]	effect of inhibitor on efficacy of the cysteine proteinases [5]
not changed	decreased	increased	increased	no significant changes	increase	decreased	increased significantly	increased significantly	decreased	c1ccc([C@H]2CN3CCSC3=N2)cc1 [levamisole]	97	increased significantly	increased significantly	99.2	98	99.4	
										CCCSc1ccc2nc(NC(=O)OC)[nH]c2c1 [albendazole]						59.4	
										CC(C)C[C@H](NC(=O)[C@H]1O[C@@H]1C(=O)O)C(=O)NCCCCN=C(N)N [Group E-64, E-64]							completely inhibited
